# Measurements from PMC11562385 (RSC Chemical Biology, 2024).
# pEC50, pKi: −log10 of the molar value. Entries after “also recorded” stand apart in the source; their conditions may differ. Peptide text beside a SMILES is read from it.
# Legend:
# PD1:PDL1 interaction [1] = conditions: read-out: apparent Ki, PD1:PDL1 interaction; cited from earlier work
# Excerpt: While downsizing a full antibody drug into a single CDR-H3 “hot loop”, one should anticipate a significant loss in binding affinity and specificity. […] The PD1 ...
# h-PBMCs = test: Ex vivo cytokine secretion assay, healthy PBMCs; type: cell-based, human; conditions: h-PBMCs reactivated with anti-CD2/28, 6 h incubation, n = 3
# Method: (§1) Then, an ex vivo immune cell culture system using h-PBMCs and exhausted PBMCs from a melanoma patient (e-PBMCs) was used to determine the efficacy of selected ADAPTin peptides on T-effector cells (Fig. 6).[91,92] T-cell exhaustion typically leads to a reduction in cytokine release, cytotoxic activity, as well as slower T-cell proliferation. […] Cytokines concentrations measured at 72 h post-treatment were in most cases over the detection limit range further indicating the effectiveness of our compounds over time.
# (§2) Non-covalent ADAPTin2c/2p were used as negative control. (A) Levels of inflammatory cytokines measured by flow-cytometry (FACS) after 6 h incubation with electrophilic ADAPTins. Error bars indicate the mean ± SD, (n = 3). (B) Rescue of exhausted PBMCs from a melanoma patient. Levels of inflammatory cytokines and granule-associated proteins released (6 h) measured by FACS (healthy and untreated exhausted PBMCs: h-/e-PBMCs used as positive and negative controls respectively). Error bars indicate the avg ± SD, (n = 2).
# (§3) Ex Vivo Cytokine Secretion Assay.
# Normal PBMCs (from healthy donor) and exhausted PBMCs isolated from the blood sample of a melanoma patient were activated for 48 h before using anti-CD2/28 monoclonal antibodies with IL-2 (2 ng/mL) as mentioned above. […] Samples were transferred to a 96-well plate to read on a flow cytometer. […]
# N-deglycosylated PD1 = test: SDS-PAGE analysis of covalent conjugation to N-deglycosylated PD1; type: biochemical; conditions: N-deglycosylated PD1, 12 h, 37 °C, pH 6.5, peptide/protein 4:1 to 16:1
# [2] = molecular target: T1, cell surface PD1 on CD3+/CD8+ cells of h-PBMCs (Homo sapiens, UniProt Q15116); test: In cellulo PD1 blockade on h-PBMCs by flow cytometry; type: cell-based; conditions: h-PBMC cultures, 30 h, n = 3
# T1 construct: endogenous in cells; host or cells: healthy human PBMCs (CD45+, CD3+/CD8+ gated)
# T1 sequence (Q15116 25-288): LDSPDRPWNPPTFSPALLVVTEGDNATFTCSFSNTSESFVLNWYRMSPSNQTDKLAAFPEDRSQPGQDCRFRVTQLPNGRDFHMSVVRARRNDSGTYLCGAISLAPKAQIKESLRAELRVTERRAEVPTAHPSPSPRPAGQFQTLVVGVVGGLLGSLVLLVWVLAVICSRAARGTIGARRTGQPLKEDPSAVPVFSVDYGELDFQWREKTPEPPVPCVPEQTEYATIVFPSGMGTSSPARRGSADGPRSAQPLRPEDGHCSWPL
# Excerpt: Then, an ex vivo immune cell culture system using h-PBMCs and exhausted PBMCs from a melanoma patient (e-PBMCs) was used to determine the efficacy of selected ADAPTin peptides on T-effector cells (Fig. 6).[91,92] T-cell exhaustion typically leads to a reduction in cytokine release, cytotoxic activity, as well as slower T-cell proliferation.
# e-PBMCs = test: Ex vivo cytokine secretion assay, exhausted PBMCs from a melanoma patient; type: cell-based, human; conditions: e-PBMC, 6 h, LEGENDplex
# Method: as §1, §2, §3
# Normal PBMCs (from healthy donor) and exhausted PBMCs isolated from the blood sample of a melanoma patient were activated for 48 h before using anti-CD2/28 monoclonal antibodies with IL-2 (2 ng/mL) as mentioned above. After 48 h, PBMCs were washed and incubated with a series of ADAPTins for 6 h. After treatment, media supernatant was collected for cytokine release measurements using the LEGENDplex™ human CD8/NK (13-plex) panel (BioLegend, cat no. 740267). Briefly, samples were mixed with assay buffer and human (13-plex) mixed-beads and plated on the 96-well filter plate. Samples were incubated for 2 h at room temperature, washed, and resuspended beads with detection antibodies according to manufacturer's protocol. Samples were transferred to a 96-well plate to read on a flow cytometer. The flow cytometer and data acquisition software setting were used according to the manufacturer's instructions. Flow analysis was obtained using a CytoFLEX-S flow cytometer equipped with 3 lasers (488 nm blue, 405 nm violet, and 638 nm from Beckman).
# Table S9. Raw data of cytokine secretion assay (n=2).
# Cytokine assay IL-2 TNF-α IFN-γ Perforin […]
# PD1:PDL1 interaction [3] = molecular target: T2, PD1:PDL1 interaction (Homo sapiens, UniProt Q15116); test: Time-course competitive inhibition of PD1:PDL1 under saturating PDL1 (1:12); type: binding; conditions: inhibitor preincubated, 3 μM; PD1:PDL1 1:12; two hours; n = 4
# T2 construct: purchased BPS Bioscience 72005
# T2 sequence (Q15116 25-167 limits assumed): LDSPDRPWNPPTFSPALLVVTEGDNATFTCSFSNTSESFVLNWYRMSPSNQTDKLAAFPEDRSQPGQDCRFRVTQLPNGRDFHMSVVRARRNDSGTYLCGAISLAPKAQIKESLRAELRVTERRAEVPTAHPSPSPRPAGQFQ
# Method: Time-course experiments were repeated by preincubating the non-covalent inhibitor 2c in one case, or the covalent ADAPTins2ca and 2cb at the same concentration.
# PD1:PDL1 interaction [4] = molecular target: T2, PD1:PDL1 interaction; test: PD1/PDL1 immunoblocking ELISA (BPS Bioscience kit cat # 72005); type: binding
compound,measurement,setting,value
CSCC[C@H](NC(=O)[C@H](CC(=O)O)NC(=O)[C@H](Cc1ccccc1)NC(=O)[C@H](CCCNC(=N)N)NC(=O)[C@H](Cc1ccc(O)cc1)NC(=O)[C@H](CC(=O)O)NC(=O)[C@H](CCCNC(=N)N)NC(=O)[C@H](CCCNC(=N)N)NC(=O)[C@H](C)NC(=O)[C@@H](NC(=O)[C@H](Cc1c[nH]c2ccccc12)NC(=O)[C@@H](N)CCCNC(=N)N)C(C)C)C(=O)NCC(=O)N[C@@H](Cc1ccccc1)C(=O)N[C@@H](CC(=O)O)C(=O)N[C@@H](Cc1ccc(O)cc1)C(=O)N[C@@H](Cc1c[nH]c2ccccc12)C(=O)N[C@H](C(=O)N[C@@H](Cc1c[nH]c2ccccc12)C(=O)N[C@@H](CCC(=O)O)C(=O)O)C(C)C [2c] (H-RWVARRDYRFDMGFDYWVWE-OH),pKi,PD1:PDL1 interaction [1],7.39
same,"increase in TNF-α, IFN-γ and perforin levels",h-PBMCs,no detectable activity
same,covalent conjugation to PD1 on SDS-PAGE (in words),N-deglycosylated PD1,No conjugation observed
same,PD1 blockade on CD3+/CD8+ T-effector cells,[2],< 20%
same,IFN-γ,e-PBMCs; replicate 1,4131.52 pg/mL
same,IL-2,e-PBMCs; replicate 1,0.44 pg/mL
same,Perforin,e-PBMCs; replicate 1,217.39 pg/mL
same,TNF-α,e-PBMCs; replicate 1,483.47 pg/mL
same,IFN-γ,e-PBMCs; replicate 2,7535.05 pg/mL
same,IL-2,e-PBMCs; replicate 2,266.63 pg/mL
same,Perforin,e-PBMCs; replicate 2,381.31 pg/mL
same,TNF-α,e-PBMCs; replicate 2,1150.47 pg/mL
same,outcome of time-course competition with excess PDL1,PD1:PDL1 interaction [3],fully displaced by PDL1; also recorded: easily displaced
same,pEC50,"PD1:PDL1 interaction [4]; ELISA, mean of three independent experiments, read-out: EC50 Value",6.60
same,LE (ligand efficiency),"PD1:PDL1 interaction [4]; LE = -RTln(EC50)/HA, HA = non-hydrogen atoms omitting the strap (RWV•••VWE)",0.07
